Values of other authors, collected in patent publication US12594237B2, “Mucoadhesive gel composition” (Viramal Limited, priority 2018, dated 2026).

Details: orally administered

half-life in serum: about 5 minutes
Structure (SMILES): CC(=O)[C@H]1CC[C@H]2[C@@H]3CCC4=CC(=O)CC[C@]4(C)[C@H]3CC[C@]12C [progesterone]
